Results published in US4889858A, “Dibenz[b,e]oxepin derivatives and pharmaceutical composition containing the same” (Dainippon Pharmaceutical Co., Ltd., priority 1986, dated 1989).
Structures can show the parent of a compound that is named as a salt.

Assays:
[1] = Anti-convulsant activity (Swinyard); assay type: in vivo, mice (ddY male); set-up: key: 9: Anticonvulsant activity was observed in all three mice.; 1: No anticonvulsant activity was observed in all three mice; settings: 100 mg/kg p.o.; 2 hours after administration; three mice
Procedure: Three ddY male mice weighing 20-24 g were employed in each group. Test compounds suspended in a 0.5% tragacanth solution were orally administered to mice at a dose of 100mg/kg in an amount of 0.1 ml/10 g body weight. The same amount of 0.5% tragacanth solution was orally administered to control group. Two hours after the administration of the test compounds, the anti-convulsant activity was measured in accordance with the procedure by Swinyard (Mercier, J., Ed., "Anticonvulsant Drugs", P. 47-65, Pargamon Press, New York, 1973).

[2] = Prolonging effect of the persistent time of gasping movements in complete ischemia (decapitation); assay type: in vivo, mice (ddY male); settings: for minimal effective dose: Mus musculus, po, 2 hours after administration, mice; for activity in prolonging gasping movements, in words: p.o., compared with flunarizine hydrochloride / compounds of the invention
Procedure: Test was conducted in accordance with the procedure by Wauquier et al. [Japan J. Pharmacol., 38, 1 (1985)], employing five ddY male mice weighing 20-24 g in each group. Test compounds were suspended in 0.5% tragacanth solution and then a fixed amount of the suspension was orally administered to mice in an amount of 0.1 ml/10 g body weight, while the same amount of 0.5% tragacanth solution was orally administered to control group. Two hours after the administration of the test compounds, the necks of mice were cut with scissors for decapitation. The persistent of gasping movements of isolated heads was measured and minimal effective dose was determined by statistically comparing with the data in control group.

[3] = Prolonging effect on the time to death by hypoxia (anoxia) in mice; assay type: in vivo, mice (STD-ddY male); settings: p.o.; compared with flunarizine hydrochloride
Procedure: Five STD-ddY male mice (weighing 20-24 g) were employed in each group. A fixed amount of test compounds was suspended in 0.5% tragacanth solution and the suspension was orally administered to mice in an amount of 0.1 ml/10 g body weight. Two hours after the administration, each mouse was taken in a 2.5 liter plastic chamber and a mixed gas comprising 4% oxygen and 96% nitrogen was passed through the chamber at a rate of 4 liter/min. There was measured the time till the death (respiratory cessation) of mice. To control group, a 0.5% tragacanth solution without test compound was orally administered.

[4] = tested on: lipid peroxidation of brain mitochondria; test: Inhibitory effect on lipid peroxidation of brain mitochondria (thiobarbituric acid method); assay type: biochemical; settings: rat brain mitochondria; 37° C., 30 minutes; Fe++ 25 μM, ascorbic acid 50 μM
Procedure: This test was conducted in accordance with the procedures by Kubo et al. [Arch. int. Pharmacodyn., 272, 283 (1984)]. Brain mitochondria of rat were incubated in 25 mM Tris-HCl buffer solution at 37° C. for 30 minutes in the presence of Fe^++ ion (25 μM) and ascorbic acid (50 μM), and the produced peroxidized lipid was measured by the thiobarbituric acid method.

[5] = Acute toxicity; assay type: in vivo, mice (ddY male); settings: 500 mg/kg p.o.; seven days observation; five mice
Procedure: Five ddY male mice weighing 20-24 g were employed in each group. The compound 1 of the present invention suspended in a 0.5% tragacanth solution was orally administered to mice at a dose of 500 mg/kg in an amount of 0.1 ml/10 g body weight. After the administration, the occurrence of death has been observed for seven days.

IC50 [4]	Structure (SMILES)	Score, anti-convulsant activity [1]	minimal effective dose [2]	prolonging effect under hypoxic condition, in words [3]	occurrence of death [5]	activity in prolonging gasping movements, in words [2]
	Fc1ccc2c(c1)COc1ccc(F)cc1C2N1CCN(C/C=C/c2ccccc2)CC1 (stereo not shown) [Compound 4]	9	30 mg/kg			
	COc1ccc2c(c1)C(N1CCN(C/C=C/c3ccccc3)CC1)c1ccccc1CO2 (stereo not shown) [Compound 2, 11-(4-cinnamyl-1-piperazinyl)-2-methoxy-6,11-dihydrodibenz[b,e]oxepin]		3 mg/kg	clearly more excellent than that o flunarizine hydrochloride		
	Fc1ccc2c(c1)C(N1CCN(CC=Cc3cccs3)CC1)c1ccccc1CO2 (stereo not shown) [Compound 8]		30 mg/kg			
	COc1ccc(OC)c2c1OCc1ccccc1C2N1CCN(C/C=C/c2ccccc2)CC1 (stereo not shown) [Compound 7]		30 mg/kg			
12.3 µM	Oc1ccc2c(c1)C(N1CCN(C/C=C/c3ccccc3)CC1)c1ccccc1CO2 (stereo not shown) [Compound 3, 11-(4-cinnamyl-1-piperazinyl)-2-hydroxy-6,11-dihydrodibenz[b,e]oxepin]		30 mg/kg			
> 150 µM	COc1cccc(C=CCN2CCN(C3c4ccccc4COc4cc(F)ccc43)CC2)c1 (stereo not shown) [A, 11-? 4-(3,-methoxycinnamyl)-1-piperazinyl-3-fluoro-6-11dihydrodibenz[b,e]oxepin, reference compound]	1	> 100 mg/kg			lower activities
	Fc1ccc2c(c1)OCc1ccc(F)cc1C2N1CCN(C/C=C/c2ccccc2)CC1 (stereo not shown) [Compound 6]		10 mg/kg			
> 150 µM	Cc1ccc2c(c1)OCc1ccccc1C2N1CCN(C/C=C/c2ccccc2)CC1 (stereo not shown) [B, 11-(4-cinnamyl-1-piperazinyl)-3-methyl-6,11-dihydrodibenz[b,e]oxepin, reference compound]	1	> 100 mg/kg			lower activities
	Fc1ccc(C(c2ccc(F)cc2)N2CCN(C/C=C/c3ccccc3)CC2)cc1 [Flunarizine hydrochloride, reference compound]	9	30 mg/kg			
	Fc1ccc2c(c1)OCc1c(F)cccc1C2N1CCN(C/C=C/c2ccccc2)CC1 (stereo not shown) [Compound 5]		3 mg/kg			

Structure (SMILES)	IC50 [4]	Score, anti-convulsant activity [1]	minimal effective dose [2]	prolonging effect under hypoxic condition, in words [3]	occurrence of death [5]	activity in prolonging gasping movements, in words [2]
Fc1ccc2c(c1)OCc1ccccc1C2N1CCN(C/C=C/c2ccccc2)CC1 (stereo not shown) [Compound 1, 11-(4-cinnamyl-1-piperazinyl)-3-fluoro-6,11-dihydrodibenz[b,e]oxepin]	7.8 µM	9	10 mg/kg	clearly more excellent than that o flunarizine hydrochloride	no death	
